# Values joined by “and” are separate entries in the source; they are usually repeats but may differ in a detail not shown here. Identical values can stand only once.
# Columns and labels:
# [1] = Body weight of mice on Western Diet given low or high dose T2; format: in vivo; details: for Body weight (Ave) / Body weight: LDLr+/− mice, Low Dose T2 0.25 mg/kg daily oral; for Body weight: 0.25 mg/kg
# Experimental: (§1) This corresponds to a dosage for an 80 kg human of about 20-200 mg/day, or a low dose of about 0.2-0.3 mg/kg of body weight to a high dose of about 2-3 mg/kg of body weight. One will appreciate, however, that some subjects (e.g., subjects having very low LDL receptor function) may receive higher doses, depending on need. likewise, some subjects may receive lower doses, which again depends on need. Mice in the study were fed a standard lab chow referred to as the “Western Diet.” The overall level of fat and the saturated nature of the fat are representative diets typical in the industrialized west that are linked to risk of cardiovascular disease in humans. The formula is used primarily with genetically manipulated rodent models that are susceptible to high cholesterol and cardiovascular disease. The diet may also be useful in diet-induced obesity, diabetes, and metabolic syndrome models. High cholesterol, obesity, and diabetes are each associated increased risk for cardiovascular disease. The composition of the Western Diet is shown below. C57 is a wild-type strain, LDLr+/− are a strain carrying one functional copy of the LDLr gene, and the LDLr0 animals are total LDLr knockouts. The LDLr gene encodes for the LDL receptor protein, which is responsible for scavenging LDL with bound cholesterol from the blood and transporting it into cells. Both heterozygous and homozygous LDLr knockout animals develop very high serum cholesterol levels and are considered to be a good model for heterozygous and homozygous familial hypercholesterolemia in humans. […] LDLr knockout animals have zero LDL receptor function.
# [2] = system: C57, LDLr+/− and LDLr0 mice; assay: Blood sugar (serum glucose) in mice on Western Diet given daily oral T2; format: in vivo; set-up: Blood Sugar / Blood Sugar Ave: unit not given here; details: for Blood Sugar Ave / Blood Sugar: Western Diet
# Experimental: as §1
# [3] = system: C57, LDLr+/− and LDLr0 mice; assay: Serum cholesterol in mice on Western Diet given daily oral T2; format: in vivo; set-up: Cholesterol / Cholesterol (Ave): unit not given here; details: for lowered cholesterol, average: vs vehicle; for Cholesterol (Ave): group average; for Cholesterol: individual animal
# Experimental: as §1
# [4] = system: thyroid receptor homodimer; details: in contrast to T3; cited from earlier work
# [5] = system: growth hormone gene expression; details: cited from earlier work
# rats = details: 250 mcg/kg p.o. q.d. for 30 days, cited from earlier work
smiles,measurement,setting,value
"N[C@@H](Cc1cc(I)c(Oc2ccc(O)cc2)c(I)c1)C(=O)O [T2, (2S)-2-amino-3-[4-(4-hydroxyphenoxy)-3,5-diiodophenyl]propanoic acid]",Body weight (Ave),"[1]; Day 1, group average",26.7 g
same,Body weight,"[1]; Day 1, individual animal, in g (unit assumed)",28.2 and 29.0 and 24.7 and 26.4 and 25.0 and 26.6
same,Body weight (Ave),"[1]; Day 2, group average",28.1 g
same,Body weight,"[1]; Day 2, individual animal, in g (unit assumed)",29.4 and 30.6 and 26.6 and 27.8 and 26.1 and 28.2
same,Body weight (Ave),"[1]; Day 3, group average",28.6 g
same,Body weight,"[1]; Day 3, individual animal, in g (unit assumed)",29.7 and 31.4 and 27.2 and 28.1 and 26.3 and 28.8
same,Body weight (Ave),"[1]; Day 4, group average",27.6 g
same,Body weight,"[1]; Day 4, individual animal, in g (unit assumed)",28.8 and 30.3 and 26.2 and 27.4 and 25.8 and 27.3
same,Body weight (Ave),"[1]; Day 5, group average",28.5 g
same,Body weight,"[1]; Day 5, individual animal, in g (unit assumed)",29.5 and 31.3 and 27.3 and 28.4 and 26.6 and 27.9
same,Body weight (Ave),"[1]; Day 6, group average",29.2 g
same,Body weight,"[1]; Day 6, individual animal, in g (unit assumed)",30.7 and 32.4 and 28.5 and 29.1 and 26.7 and 27.9
same,Body weight (Ave),"[1]; Day 7, group average",30 g
same,Body weight,"[1]; Day 7, individual animal",31.0 and 32.7 and 29.6 (2×) and 28.2 and 29.0
same,effect on weight gain,"[1]; low and high dose T2, all genotypes",did not affect
same,Blood Sugar Ave,"[2]; C57 mice, 1 Week High Dose T2, group average",110.0
same,Blood Sugar,"[2]; C57 mice, 1 Week High Dose T2, individual animals",74 and 158 and 106 and 120 and 92
same,Blood Sugar Ave,"[2]; C57 mice, 1 Week Low Dose T2, group average",170.0
same,Blood Sugar,"[2]; C57 mice, 1 Week Low Dose T2, individual animals",151 and 203 and 186 and 190 and 120
same,Blood Sugar Ave,"[2]; LDLr0 mice, 1 Week High Dose T2, group average",94.0
same,Blood Sugar,"[2]; LDLr0 mice, 1 Week High Dose T2, individual animals",87 and 101
same,Blood Sugar Ave,"[2]; LDLr0 mice, 1 Week Low Dose T2, group average",92.0
same,Blood Sugar,"[2]; LDLr0 mice, 1 Week Low Dose T2, individual animals",143 and 54 and 79
same,Blood Sugar Ave,"[2]; LDLr+/− mice, 1 Week High Dose T2, group average",101.0
same,Blood Sugar,"[2]; LDLr+/− mice, 1 Week High Dose T2, individual animals",108 and 99 and 112 and 94 and 113 and 80
same,Blood Sugar Ave,"[2]; LDLr+/− mice, 1 Week Low Dose T2, group average",201.0
same,Blood Sugar,"[2]; LDLr+/− mice, 1 Week Low Dose T2, individual animals",202 and 146 and 235 and 171 and 242 and 210
same,"lowered blood sugar levels, average","[2]; all genetic groups (C57, LDLr+/−, LDLr0), high dose T2 2.5 mg/kg daily oral, vs controls",45-50%
same,"lowered cholesterol, average","[3]; C57 animals, high dose T2 2.5 mg/kg daily oral",about 67%
same,"lowered cholesterol, average","[3]; C57 animals, low dose T2 0.25 mg/kg daily oral",about 38%
same,Cholesterol (Ave),"[3]; C57 mice, 1 Week High Dose, T2 2.5 mg/kg daily oral",60.8
same,Cholesterol,"[3]; C57 mice, 1 Week High Dose, T2 2.5 mg/kg daily oral, 2.5 mg/kg",41.312 and 53.718 and 75.711 and 62.741 and 70.636
same,Cholesterol (Ave),"[3]; C57 mice, 1 Week Low Dose, T2 0.25 mg/kg daily oral",113.5
same,Cholesterol,"[3]; C57 mice, 1 Week Low Dose, T2 0.25 mg/kg daily oral, 0.25 mg/kg",96.130 and 114.249 and 104.366 and 114.798 and 137.858
same,Cholesterol (Ave),"[3]; LDLr0 mice (first group), 1 Week High Dose, T2 2.5 mg/kg daily oral",320.4
same,Cholesterol,"[3]; LDLr0 mice (first group), 1 Week High Dose, T2 2.5 mg/kg daily oral, 2.5 mg/kg",303.529 and 337.364
same,Cholesterol (Ave),"[3]; LDLr0 mice (first group), 1 Week Low Dose, T2 0.25 mg/kg daily oral",823.5
same,Cholesterol,"[3]; LDLr0 mice (first group), 1 Week Low Dose, T2 0.25 mg/kg daily oral, 0.25 mg/kg",1063.848 and 593.252 and 813.532
same,Cholesterol (Ave),"[3]; LDLr0 mice (second group), 1 Week Low Dose, T2 0.25 mg/kg daily oral",930.5
same,Cholesterol,"[3]; LDLr0 mice (second group), 1 Week Low Dose, T2 0.25 mg/kg daily oral, 0.25 mg/kg",611.760 and 750.720 and 813.250 and 1112.010 and 1167.590 and 438.070 and 1000.840 and 1549.720
same,Cholesterol (Ave),"[3]; LDLr0 mice (second group), 2 Week Low Dose, T2 0.25 mg/kg daily oral",1026.8
same,Cholesterol,"[3]; LDLr0 mice (second group), 2 Week Low Dose, T2 0.25 mg/kg daily oral, 0.25 mg/kg",996.905 and 1035.325 and 944.755 and 988.670 and 1092.965 and 524.830 and 1189.025 and 1441.530
same,"lowered cholesterol, average","[3]; LDLr knockout animals, high dose T2 2.5 mg/kg daily oral",about 80%
same,"lowered cholesterol, average","[3]; LDLr knockout animals, low dose T2 0.25 mg/kg daily oral",about 46%
same,"lowered cholesterol, average","[3]; LDLr+/− animals, high dose T2 2.5 mg/kg daily oral",about 67%
same,"lowered cholesterol, average","[3]; LDLr+/− animals, low dose T2 0.25 mg/kg daily oral",about 26%
same,Cholesterol (Ave),"[3]; LDLr+/− mice, 1 Week High Dose, T2 2.5 mg/kg daily oral",93.8
same,Cholesterol,"[3]; LDLr+/− mice, 1 Week High Dose, T2 2.5 mg/kg daily oral, 2.5 mg/kg",84.169 and 99.395 and 103.342 and 102.778 and 66.124 and 107.29
same,Cholesterol (Ave),"[3]; LDLr+/− mice, 1 Week Low Dose, T2 0.25 mg/kg daily oral",188.8
same,Cholesterol,"[3]; LDLr+/− mice, 1 Week Low Dose, T2 0.25 mg/kg daily oral, 0.25 mg/kg",185.075 and 229.548 and 196.605 and 160.917 and 172.447 and 188.370
same,effect on thyroid receptor homodimer formation,[4],no effect
same,potency relative to T3 in increasing growth hormone gene expression,[5],1/100
same,decrease in body weight,rats; compared to controls,13%
same,decrease in hepatic fat mass,rats; compared to controls,50%
same,increase in hepatic fat oxidation,rats; compared to controls,42%
same,lowering of cholesterol,rats; compared to controls,18%
same,lowering of serum triglycerides,rats; compared to controls,52%
same,"heart rate, thyroid gland or heart weight, TSH, free T3, free T4, TSH response to TRH",rats,not accompanied by an increase in heart rate
